# PMC5937946 (Biochemistry, 2017)
# Where two headings read alike, the source gives them in different places.
# What was measured:
# [1] = system: C. albicans cell-associated Cu; assay: ICP-MS of cell-associated Cu content; type: cell-based, Candida albicans; conditions: cells grown overnight with BCS
# [2] = system: C. albicans (ATCC, SC5314)
# [3] = system: C. albicans (ATCC, SC5314); assay: Antifungal susceptibility assay; conditions: for growth inhibition of C. albicans by metal ion alone: concentration range tested 0–100 µM, no peptide
# [4] = pH 7.4; cited from earlier work
# [5] = pH 7.4; cited from earlier work; remark: listed apart in the source
smiles,measurement,setting,value
"Cc1cc(-c2ccc(S(=O)(=O)O)cc2)c2ccc3c(-c4ccc(S(=O)(=O)O)cc4)cc(C)nc3c2n1 [BCS, bathocuproine disulphonate]",decrease in cell-associated Cu compared to basal level,[1],70%
same,"concentrations well tolerated by C. albicans, ligand alone",[2],≤ 2000 µM
"O=S(=O)([O-])[O-].[Cu+2] [CuSO4, copper sulfate]",growth inhibition of C. albicans by metal ion alone,[3],Neither Cu(II) nor Fe(III) by themselves inhibited growth
"O=C(O)CN(CCN(CC(=O)O)CC(=O)O)CC(=O)O [EDTA, ethylenediaminetetraacetic acid]","concentrations well tolerated by C. albicans, ligand alone",[3]; initial susceptibility testing of the ligands alone,≤ 250 µM
"[Cl][Fe]([Cl])[Cl] [Fe(III), FeCl3]",growth inhibition of C. albicans by metal ion alone,[3],Neither Cu(II) nor Fe(III) by themselves inhibited growth
"O=S(=O)([O-])c1ccc(-c2nnc(-c3ccccn3)nc2-c2ccc(S(=O)(=O)[O-])cc2)cc1.[Na+].[Na+] [Fz, Ferrozine]",log KFz2Cu(I),[4],11.56
"O=C(O)CN(CC(=O)O)CC(=O)O [NTA, nitrilotriacetic acid]",log KNTA(Cu(II)),[5],10.68
